In patent KR20050021629A, “신규한 벤조플루오렌 디온계 화합물” (학교법인 이화학당, priority 2003, dated 2005):
In brackets after ≈: the same amount, converted by molar mass. Like-named read-outs stand apart in the source and are kept apart here.

What was measured:
[1] = test system: human central nervous system cancer cell line XF498 (인간 중추 신경계암 세포주 (XF498)); assay: SRB cytotoxicity test, human central nervous system cancer cell line XF498; type: cell-based
[2] = test system: human melanoma cell line SK-MEL-2 (인간 흑색종암 세포주 (SK-MEL-2)); assay: SRB cytotoxicity test, human melanoma cell line SK-MEL-2; type: cell-based
[3] = test system: human colon cancer cell line HCT15 (인간 결장암 세포주 (HCT15)); assay: SRB cytotoxicity test, human colon cancer cell line HCT15; type: cell-based
[4] = test system: human ovarian cancer cell line SK-OV-3 (인간 난소암 세포주 (SK-OV-3)); assay: SRB cytotoxicity test, human ovarian cancer cell line SK-OV-3; type: cell-based
[5] = test system: human lung cancer cell line A549 (인간 폐암 세포주 (A549)); assay: SRB cytotoxicity test, human lung cancer cell line A549; type: cell-based
[6] = test system: human ovarian cancer cell line (SK-OV-3) (인간 난소암 세포주(SK-OV-3)); conditions: literature (Y. S. Kim et al. 2003); cited from earlier work
[7] = XF498, XF 498, SRB assay, 48 h incubation, read-out: ED50 (the source's name)
[8] = SK-MEL-2, SRB assay, 48 h incubation, read-out: ED50 (the source's name)
[9] = HCT 15, SRB assay, 48 h incubation, read-out: ED50 (the source's name)
[10] = SK-OV-3, SRB assay, 48 h incubation, read-out: ED50 (the source's name)
[11] = A549, SRB assay, 48 h incubation, read-out: ED50 (the source's name)

Molecule	IC50 [1, 7] [µg/mL]	IC50 [2, 8] [µg/mL]	IC50 [3, 9] [µg/mL]	IC50 [4, 10] [µg/mL]	IC50 [5, 11] [µg/mL]	anticancer effect compared with doxorubicin [6]	IC50 ([1]; XF498, 48 h, read-out: ED50) [µg/mL]	IC50 ([2]; SK-MEL-2, 48 h, read-out: ED50) [µg/mL]	IC50 ([3]; HCT-15, 48 h, read-out: ED50) [µg/mL]	IC50 ([4]; SK-OV-3, 48 h, read-out: ED50) [µg/mL]	IC50 ([5]; A549, 48 h, read-out: ED50) [µg/mL]
O=C1C(=O)c2c(nc3ccc(Cl)cn23)-c2ncccc21 [실시예 3, 8-클로로-1,6b,11-트리아자-벤조[3,2-a]플루오렌-5,6-디온]	0.45 (≈ 1.59 µM)	0.65 (≈ 2.29 µM)	0.99 (≈ 3.49 µM)	0.55 (≈ 1.94 µM)	0.59 (≈ 2.08 µM)	–	–	–	–	–	–
O=C1C(=O)c2c(nc3cnccn23)-c2ncccc21 [실시예 5, 1,6b,9,11-테트라아자-벤조[a]플루오렌-5,6-디온]	0.03 (≈ 0.12 µM)	0.032 (≈ 0.128 µM)	0.047 (≈ 0.188 µM)	0.02 (≈ 0.0799 µM)	0.051 (≈ 0.204 µM)	–	–	–	–	–	–
2-메틸-4a,10,11-트리아자-벤조[3,2-a]플루오렌-5,6-디온	–	–	–	–	–	독소루비신보다 항암효과가 우수함	–	–	–	–	–
Cc1cccn2c3c(nc12)-c1ncccc1C(=O)C3=O [실시예 1, 10-메틸-1,6b,11-트리아자-벤조[3,2-a]플루오렌-5,6-디온]	0.033 (≈ 0.125 µM)	0.11 (≈ 0.418 µM)	0.044 (≈ 0.167 µM)	0.073 (≈ 0.277 µM)	0.054 (≈ 0.205 µM)	–	–	–	–	–	–
O=C1C(=O)c2c(nc3ccccn23)-c2cnncc21 [실시예 6, 2,3,6b,11-테트라아자-벤조[a]플루오렌-5,6-디온]	0.12 (≈ 0.48 µM)	0.12 (≈ 0.48 µM)	0.1 (≈ 0.4 µM)	0.2 (≈ 0.799 µM)	0.022 (≈ 0.0879 µM)	–	–	–	–	–	–
Cc1cccc2nc3c(n12)C(=O)C(=O)c1cccnc1-3 [실시예 2, 7-메틸-1,6b,11-트리아자-벤조[3,2-a]플루오렌-5,6-디온]	0.2 (≈ 0.76 µM)	1.08 (≈ 4.1 µM)	0.71 (≈ 2.7 µM)	1.04 (≈ 3.95 µM)	0.23 (≈ 0.874 µM)	–	–	–	–	–	–
COc1cccc2c1C(=O)c1c(O)c3c(c(O)c1C2=O)C[C@@](O)(C(=O)CO)C[C@@H]3O[C@H]1C[C@H](N)[C@H](O)[C@H](C)O1 [독소루비신, reference compound]	–	–	–	–	–	–	0.187 (≈ 0.344 µM)	0.11 (≈ 0.202 µM)	0.19 (≈ 0.35 µM)	0.21 (≈ 0.386 µM)	0.093 (≈ 0.171 µM)
Cc1ccc2nc3c(n2c1)C(=O)C(=O)c1cnncc1-3 [실시예 7, 8-메틸-2,3,6b,11-테트라아자-벤조[a]플루오렌-5,6-디온]	1.77 (≈ 6.7 µM)	1.77 (≈ 6.7 µM)	0.92 (≈ 3.48 µM)	1.01 (≈ 3.82 µM)	3.54 (≈ 13.4 µM)	–	–	–	–	–	–
O=C1C(=O)c2c(nc3ncccn23)-c2ncccc21 [실시예 4, 1,6b,10,11-테트라아자-벤조[a]플루오렌-5,6-디온]	0.081 (≈ 0.324 µM)	0.034 (≈ 0.136 µM)	0.077 (≈ 0.308 µM)	0.061 (≈ 0.244 µM)	0.12 (≈ 0.48 µM)	–	–	–	–	–	–
COc1cc(C2c3cc4c(cc3C(OC3OC5COC(C)OC5C(O)C3O)C3COC(=O)C23)OCO4)cc(OC)c1O (stereo not shown) [에토포시드, reference compound]	–	–	–	–	–	–	1.43 (≈ 2.43 µM)	1.37 (≈ 2.33 µM)	0.97 (≈ 1.65 µM)	1.84 (≈ 3.13 µM)	0.577 (≈ 0.98 µM)
